Here are results for 8 compounds from patent publication US12306164B2, “Therapeutic drug for lipid-peroxidation-induced diseases and screening method for therapeutic drugs for lipid-peroxidation-induced diseases” (FUSO PHARMACEUTICAL INDUSTRIES, LTD., priority 2017, dated 2025).

Counter-ions that a name gives are not always drawn.

Series [1] concerns lipid peroxidation reaction in liposomes (AAPH system). The experiment in a line: NBD-TEEPO assay in artificial lipid membranes, AAPH system. Particulars: AAPH 20 mM, AsA 0-20 μM, after 40 minutes. The class given is biochemical. The method, then:
(§1) Probes (NBD-TEEPO compound) (5.0 μM) and liposomes (2.5 mg/mL Egg PC, 0.1 mg/mL DCP) were mixed in phosphate buffer (10 mM, pH 7.4, 0.5% DMSO, 0.5% acetonitrile) at 37° C. AAPH (0-20 mM) or FeSO4 (0-2.0 mM) was added to the mixture, and the lipid peroxidation reaction was started. After 40 minutes in the AAPH system or after 60 minutes in the Fe^2+ system, the fluorescence intensity was measured at an excitation wavelength of 470 nm and a fluorescence wavelength of 530 nm.

Series [2] deals with HepG2 cells. The experiment in a line: Intracellular lipid peroxidation inhibition by antioxidants (NBD-TEEPO assay). The class given is cell-based, human. The settings on record: 200 μM AA or 300 μM tBHP, 50 μM antioxidant, 45 minutes. The method, then:
Human hepatoma cells (HepG2 cells) were cultured with DMEM medium (containing 10% FBS, 1% Penicillin-Streptomycin and 1×MEM non-essential amino acids) in a CO2 incubator (37° C., 5% CO2). Passaging was performed when 60-70% subconfluent state was reached. DMEM media (phenol red free, containing 1% Penicillin-Streptomycin) was used for various measurements. HepG2 cells were seeded in a 96-well plate at 10,000 cells/well. The cells were incubated for 24 hours to adhere. AA (200 μM) or tBHP (0 to 300 μM), antioxidant (50 μM), and probe (5.0 μM) were added to the cells in DMEM medium (0.5% DMSO, 0.5% acetonitrile), and after 45 minutes, the fluorescence intensity was measured at an excitation wavelength of 470 nm and a fluorescence wavelength of 530 nm.

The test system of series [3] is HepG2 cells. The experiment in a line: Secondary screening, Core Library (NBD-TEEPO assay). The class given is cell-based, human. Particulars: 50 μM compound, 200 μM AA (45 minutes) or 300 μM tBHP (60 minutes); high activity values in both systems. The method, then:
In the screening by the cell-based assay method, activity values were determined from the values of fluorescence intensity measured in each screening using AA or tBHP as a reaction initiator, based on the following expression: Activity value=100(AUCSample−AUCBackground)/(AUCControl−AUCBackground) • AUCSample: Area under the curve calculated from the fluorescence intensity for with reaction initiator and with each compound (n=1) • AUCControl: Area under the curve calculated from fluorescence intensity for with reaction initiator and without each compound • AUCBackground: Area under the curve calculated from fluorescence intensity for without reaction initiator and without each compound
For the compounds, 10 mM 100% DMSO solutions (dispensed at 5.0 µL/well) were provided from Drug Discovery Initiative, the University of Tokyo. 495 μL of DMEM medium for measurement was added, and a 1.0% DMSO solution containing 100 μM of the compound was prepared. This solution was dispensed by 80 μL with Biomek NXP into a measuring plate on which cells were seeded in advance. To the test compound (100 μM 1.0% DMSO), 64 μL of DMEM medium (1.25% acetonitrile) containing 12.5 M NBD-TEEPO compound, and 16 μL of PBS in which AA (2000 μM, 5.0% ethanol) or tBHP (3000 μM) was dissolved were manually dispensed. The final concentration was 50 μM test compound and 200 μM AA or 300 μM tBHP in DMEM medium (0.5% DMSO, 0.5% acetonitrile).
The reaction mixture was mixed at 37° C., and the fluorescence intensity at an excitation wavelength of 470 nm and a fluorescence wavelength of 530 nm was measured over time every 3 minutes. The AUC was calculated from the fluorescence intensity for 45 minutes in the AA-added system or 60 minutes in the tBHP-added system, and the activity value of each test compound was calculated according to the expression described herein.

In series [4] the test system is HepG2 cells. The experiment in a line: Cytotoxicity evaluation at tertiary screening (MTT, compound alone). The series is classed as cell-based. Particulars: 50 μM compound alone, 72 hours. The method, then:
To 1.0×10^4 HepG2 cells, 50 μM compound were added, and cell viability after 72 hours was measured by an MTT assay.
(§2) For the evaluation of cytotoxicity, 50 μM antioxidant was added to HepG2 cells in DMEM medium (0.5% DMSO), and after incubation at 37° C. for 72 hours, the cell viability was measured. • 4) The activity values of the two-added systems in each of the assay using NBD-TEEPO and the MTT assay were plotted (FIG. 15C and FIG. 16C).

Series [5] has as its system HepG2 cells. The experiment in a line: Tertiary screening, Core Library (NBD-TEEPO assay). The class given is cell-based, human. Particulars: 50 μM compound, 200 μM AA or 300 μM tBHP. The method, then: The Core Library of Drug Discovery Initiative, the University of Tokyo, includes structural analogs for each compound. Then, secondary screening was also performed for structural analog compounds for each candidate compound in the same manner as Example 13 and the activity values were evaluated.
Specifically, the nine hit compounds, Compound Nos. 7, 19, 39, 48, 52, 64, 73, 78, 80, of the secondary screening had 5, 2, 4, 6, 6, 5, 5, 10, 2 structural analogs, respectively, thus, a total 45 structural analogs were taken. Then, including the original 9 compounds, a total 54 compounds were subjected to tertiary screening, and the activity values were calculated in the same manner.
as §2

The conditions of series [6]: not told; cited from earlier work.
Series [7] deals with lipid peroxidation reaction in liposomes (Fe^2+ system). The experiment in a line: NBD-TEEPO assay in artificial lipid membranes, Fe2+ system. The class given is biochemical. Particulars: FeSO4 1 mM, Eda 0-20 μM, after 60 minutes. The method, then:
as §1

Take `O=C1O[C@H]([C@@H](O)CO)C(O)=C1O` [AsA, ascorbic acid]: the “inhibition of NBD-TEEPO fluorescence increase” value in series [1] is reported as “inhibited the fluorescence increase concentration-dependently”.

Consider `Oc1cc(O)c2c(c1)O[C@H](c1ccc(O)c(O)c1)[C@H](O)C2` [Catechin, (−)-epicatechin], for which the “inhibitory effect on AA- and tBHP-induced fluorescence increase” value in the series with HepG2 cells [2] is reported as “strongest inhibitory effect”.

For `CC(Nc1ccc(Nc2ccccc2)cc1)C(=O)Nc1ccc(S(N)(=O)=O)cc1` (stereo not shown) [Compound 7, 2-((4-(Phenylamino)phenyl)amino)-N-(4-sulfamoylphenyl)propanamide], in the series on HepG2 cells [3], the “activity values (lipid peroxidation inhibition) in both AA-added and tBHP-added systems” value was “hit compounds”.

For `COc1cc(/C=C/c2ccc3cccc([N+](=O)[O-])c3n2)cc(OC)c1O` [Compound 48, 2,6-Dimethoxy-4-(2-(8-nitroquinolin-2-yl)vinyl)phenol], in the series with HepG2 cells [3], the “activity values (lipid peroxidation inhibition) in both AA-added and tBHP-added systems” value is on record as “hit compounds”.

For the compound `CN(C)c1cc2c(cc1N)-c1ccccc1C2` [Compound 64, N^2,N^2-Dimethyl-9H-fluorene-2,3-diamine], in the series with HepG2 cells [3], the “activity values (lipid peroxidation inhibition) in both AA-added and tBHP-added systems” value is given as “hit compounds”.

Turning to `COc1cc(NS(C)(=O)=O)ccc1Nc1c2ccc(C)cc2nc2c1[nH]c1ccccc12` [Compound 80, N-(3-Methoxy-4-((3-methyl-1-10H-indolo[3,2-b]quinolin-11-yl)amino)phenyl)methanesulfonamide], the “activity values (lipid peroxidation inhibition) in both AA-added and tBHP-added systems” value in the series with HepG2 cells [3] was “hit compounds”. Also, the cytotoxicity result in the series with HepG2 cells [4] is reported as “extremely high”. Besides, in the series with HepG2 cells [5], the “lipid peroxidation inhibitory effects” value was “highest”.

In the case of `CN1CC[C@]2(C)c3cc(O)ccc3N(C)[C@H]12` [Compound W, (−)-eseroline fumarate], in series [6], the “permeability to blood-retinal barrier (BRB)” value is “highly permeable”.

In the case of `CC1=NN(c2ccccc2)C(=O)C1` [Eda, Edaravone], the “inhibition of NBD-TEEPO fluorescence increase” value in series [7] was “inhibited the fluorescence increase concentration-dependently”.
